Test results published in patent US20240067632A1, “WEE1 Degrading Compounds and Uses Thereof” (Bristol-Myers Squibb Company, priority 2022, published 2024).

Tests used:
[1] = target: T1, WEE1 (Homo sapiens, UniProt P30291+Q96SW2); assay: WEE1-ePL degradation assay (LentiX-WEE1-ePL-GSPT1-ND cells, InCELL Hunter luminescence, 4 h); assay type: cell-based; details: 293T-LentiX WEE1-ePL cells; for 293T-LentiX WEE1-ePL Degradation 4 hr (Ymin): lower limit of the fit (0 = luciferase inhibitor, Ymax = DMSO control); for DC50: read-out: 293T-LentiX WEE1-ePL Degradation 4 hr (EC50)
T1 construct: C-terminal ePL-tagged (DiscoverX, Fremont, CA) full-length WEE1 expression construct; expressed in transfected cells; host or cells: LentiX-HEK293T (Invitrogen), lentiviral transduction; co-expressing GSPT1-GN (G576N, lacking the first 158 amino acids)
Procedure, shortened: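 First, compounds were pre-plated as 10-point, 3-fold dilutions (top 1 uM or 10 uM) with DMSO control; next, WEE1-ePL-expressing HEK293T cells were added and held 4 h at 37 °C; finally, InCELL Hunter reagent was applied for 30 min before luminescence reading. A 4PL fit gave EC50 and Ymin.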

[2] = tested on: MKN45 cells; assay: MKN45 cell proliferation assay (Cell-Titer-Glo, 120 h); assay type: cell-based; details: for EC50: Homo sapiens, MKN-45, 120 h, Cell-Titer-Glo, growth inhibition, read-out: MKN45 Cell Prolif. 120 hr (EC50); for MKN45 Cell Prolif. 120 hr (Ymin-Obs): minimal percent of DMSO control observed in the concentrations tested
Procedure, shortened: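 Cells seeded at 400/well onto pre-printed 10-point half-log dilutions (top 1 or 10 uM, 0.1% DMSO final), in triplicate, and grown 120 h at 37 C. Viability by Cell-Titer-Glo luminescence, blank-subtracted and normalised to DMSO; EC50 from four-parameter logistic fit, with observed minimal % of control recorded as Ymin-obs.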

Row | SMILES | 293T-LentiX WEE1-ePL Degradation 4 hr (Ymin) [1] | DC50 [1] [nM] | EC50 [2] [nM] | MKN45 Cell Prolif. 120 hr (Ymin-Obs) [2]
1 | O=C1CCC(N2Cc3cc(O[C@H]4CCN(Cc5ccc6nc(C7CC7)ccc6c5)C4)ccc3C2=O)C(=O)N1 (stereo partly drawn) [3-(5-{[(3S)-1-[(2-cyclopropylquinolin-6-yl)methyl]pyrrolidin-3-yl]oxy}-1-oxo-2,3-dihydro-1H-isoindol-2-yl)piperidine-2,6-dione] | 34.33 | 2.21 | 6.03 | 12.12
2 | CCc1ccc2cc(CN3CC[C@H](Oc4ccc5c(c4)CN(C4CCC(=O)NC4=O)C5=O)C3)ccc2n1 (stereo partly drawn) [3-(5-{[(3S)-1-[(2-ethylquinolin-6-yl)methyl]pyrrolidin-3-yl]oxy}-1-oxo-2,3-dihydro-1H-isoindol-2-yl)piperidine-2,6-dione] | 27 | 3.02 | 25.2 | 12.49
3 | C#Cc1ncc2cc(CN3CC[C@H](Oc4ccc5c(c4)CN(C4CCC(=O)NC4=O)C5=O)C3)ccc2n1 (stereo partly drawn) [3-(5-{[(3S)-1-[(2-ethynylquinazolin-6-yl)methyl]pyrrolidin-3-yl]oxy}-1-oxo-2,3-dihydro-1H-isoindol-2-yl)piperidine-2,6-dione] | 45 | 16.5 | 70.2 | 28.856
4 | C#Cc1ccc2cc(CN3CC[C@H](Oc4ccc5c(c4)CN(C4CCC(=O)NC4=O)C5=O)C3)ccc2n1 (stereo partly drawn) [3-(5-{[(3S)-1-[(2-ethynylquinolin-6-yl)methyl]pyrrolidin-3-yl]oxy}-1-oxo-2,3-dihydro-1H-isoindol-2-yl)piperidine-2,6-dione] | 32 | 3.14 | 260 | 6.523
5 | COc1ncc2cc(CN3CC[C@H](Oc4ccc5c(c4)CN(C4CCC(=O)NC4=O)C5=O)C3)ccc2n1 (stereo partly drawn) [3-(5-{[(3S)-1-[(2-methoxyquinazolin-6-yl)methyl]pyrrolidin-3-yl]oxy}-1-oxo-2,3-dihydro-1H-isoindol-2-yl)piperidine-2,6-dione] | 37 | 8.05 | 22.3 | 8.47
6 | COc1ccc2cc(CN3CC[C@H](Oc4ccc5c(c4)CN(C4CCC(=O)NC4=O)C5=O)C3)ccc2n1 (stereo partly drawn) [3-(5-{[(3S)-1-[(2-methoxyquinolin-6-yl)methyl]pyrrolidin-3-yl]oxy}-1-oxo-2,3-dihydro-1H-isoindol-2-yl)piperidine-2,6-dione] | 36 | 6.24 | 45.2 | 19.71
7 | Cn1cc2cc(CN3CC[C@H](Oc4ccc5c(c4)CN(C4CCC(=O)NC4=O)C5=O)C3)ccc2n1 (stereo partly drawn) [3-(5-{[(3S)-1-[(2-methyl-2H-indazol-5-yl)methyl]pyrrolidin-3-yl]oxy}-1-oxo-2,3-dihydro-1H-isoindol-2-yl)piperidine-2,6-dione] | 52 | 40.5 | > 10000 | 81.985
8 | Cc1cc(CN2CC[C@H](Oc3ccc4c(c3)CN(C3CCC(=O)NC3=O)C4=O)C2)ccn1 (stereo partly drawn) [3-(5-{[(3S)-1-[(2-methylpyridin-4-yl)methyl]pyrrolidin-3-yl]oxy}-1-oxo-2,3-dihydro-1H-isoindol-2-yl)piperidine-2,6-dione] | 39.18 | 39.5 | 663 | 37.845
9 | Cc1ncc2cc(CN3CC[C@H](Oc4ccc5c(c4)CN(C4CCC(=O)NC4=O)C5=O)C3)ccc2n1 (stereo partly drawn) [3-(5-{[(3S)-1-[(2-methylquinazolin-6-yl)methyl]pyrrolidin-3-yl]oxy}-1-oxo-2,3-dihydro-1H-isoindol-2-yl)piperidine-2,6-dione] | 34.5 | 29.6 | 27.1 | 7.995
10 | Cc1ncc2ccc(CN3CC[C@H](Oc4ccc5c(c4)CN(C4CCC(=O)NC4=O)C5=O)C3)cc2n1 (stereo partly drawn) [3-(5-{[(3S)-1-[(2-methylquinazolin-7-yl)methyl]pyrrolidin-3-yl]oxy}-1-oxo-2,3-dihydro-1H-isoindol-2-yl)piperidine-2,6-dione] | 35.02 | 65.5 | 365 | 32.41
11 | Cc1nc2ccccc2cc1CN1CC[C@H](Oc2ccc3c(c2)CN(C2CCC(=O)NC2=O)C3=O)C1 (stereo partly drawn) [3-(5-{[(3S)-1-[(2-methylquinolin-3-yl)methyl]pyrrolidin-3-yl]oxy}-1-oxo-2,3-dihydro-1H-isoindol-2-yl)piperidine-2,6-dione] | 34.08 | 8.04 | 34.8 | 11.29
12 | Cc1ccc2cc(CN3CC[C@H](Oc4ccc5c(c4)CN(C4CCC(=O)NC4=O)C5=O)C3)ccc2n1 (stereo partly drawn) [3-(5-{[(3S)-1-[(2-methylquinolin-6-yl)methyl]pyrrolidin-3-yl]oxy}-1-oxo-2,3-dihydro-1H-isoindol-2-yl)piperidine-2,6-dione] | 30.3 | 3.81 | 22.3 | 13.85
13 | CC(C)(C)c1ccc2cc(CN3CC[C@H](Oc4ccc5c(c4)CN(C4CCC(=O)NC4=O)C5=O)C3)ccc2n1 (stereo partly drawn) [3-(5-{[(3S)-1-[(2-tert-butylquinolin-6-yl)methyl]pyrrolidin-3-yl]oxy}-1-oxo-2,3-dihydro-1H-isoindol-2-yl)piperidine-2,6-dione] | 29 | 2.8 | 9.2 | 11.88
14 | O=C1CCC(N2Cc3cc(O[C@H]4CCN(Cc5ccc6nc(N7CC8(COC8)C7)ncc6c5)C4)ccc3C2=O)C(=O)N1 (stereo partly drawn) [3-(5-{[(3S)-1-[(2-{2-oxa-6-azaspiro[3.3]heptan-6-yl}quinazolin-6-yl)methyl]pyrrolidin-3-yl]oxy}-1-oxo-2,3-dihydro-1H-isoindol-2-yl)piperidine-2,6-dione] | 37 | 35.5 | 21.8 | 15.5
15 | O=C1CCC(N2Cc3cc(O[C@H]4CCN(Cc5ccc6nc(N7CC8(COC8)C7)ccc6c5)C4)ccc3C2=O)C(=O)N1 (stereo partly drawn) [3-(5-{[(3S)-1-[(2-{2-oxa-6-azaspiro[3.3]heptan-6-yl}quinolin-6-yl)methyl]pyrrolidin-3-yl]oxy}-1-oxo-2,3-dihydro-1H-isoindol-2-yl)piperidine-2,6-dione] | 41.5 | 7.76 | 10.7 | 14.91
16 | O=C1CCC(N2Cc3cc(O[C@H]4CCN(Cc5ccc6nc(C78CCOCC7C8)ccc6c5)C4)ccc3C2=O)C(=O)N1 (stereo partly drawn) [3-(5-{[(3S)-1-[(2-{3-oxabicyclo[4.1.0]heptan-6-yl}quinolin-6-yl)methyl]pyrrolidin-3-yl]oxy}-1-oxo-2,3-dihydro-1H-isoindol-2-yl)piperidine-2,6-dione] | 33.33 | 3.1 | 2.16 | 9.735
17 | O=C1CCC(N2Cc3cc(O[C@H]4CCN(Cc5ccc6nc(N7CCC78COC8)ncc6c5)C4)ccc3C2=O)C(=O)N1 (stereo partly drawn) [3-(5-{[(3S)-1-[(2-{6-oxa-1-azaspiro[3.3]heptan-1-yl}quinazolin-6-yl)methyl]pyrrolidin-3-yl]oxy}-1-oxo-2,3-dihydro-1H-isoindol-2-yl)piperidine-2,6-dione] | 37 | 8.5 | 14.2 | 14.05
